US10172816B2, “Method of treating chronic obstructive pulmonary disease (CPD) with verproside” (YUNGJIN PHARMACEUTICAL CO., LTD, priority 2013, dated 2019)

Columns and labels:
MIP-2/CXCL-2 = experiment: COPD mouse model (LPS+CS): MIP-2/CXCL-2 in BALF by ELISA; format: in vivo, BALB/c mice; settings: 15 mg/kg, p.o.
[1] = test system: inflammation in lung tissue; experiment: COPD rat model: histopathological examination of lung tissue; format: in vivo, Sprague-Dawley rat; settings: p.o.
Method: (§2) The exposure of cigarette smoke was performed by using a cigarette smoke generator (CH Technology Corp. USA). In a detail, 1 hour after the orally administration of test samples using by Head/nose-only exposure unit (TSE System, German) according to nose-only method, the cigarette smoke was exposed by inhalation for 3 days every hour. 8 puffs (volume 35 ml, duration 2 sec, interval 1 time/min) per one piece of standard cigarette was performed in the experiment. The tested groups were divided into five groups, i.e., (i) normal group with no treatment (normal control, NC), (ii) control group exposed with cigarette smoke (COPD), (iii) test sample group treated with Daxas (1 mg/kg, p.o) 1 hr prior to cigarette smoke exposure (DA), (iv) test sample group treated with ATC2 (30 mg/ml, p.o) 1 hr prior to cigarette smoke exposure (YPL), and (v) test sample group treated with Verproside (30 mg/ml, p.o) 1 hr prior to cigarette smoke exposure (Ver).
Delivered lung was promptly fixed with 10% formaldehyde solution (F0161, SAMCHUN, Korea), and cut into slices. The slices were washed with running water for 8 hrs, embedded with epoxy, cut into slices with microtome (CUT4050, MicroTec, Germany) and stained with Hematoxylin (MHS-16, Sigma-Aldrich, USA) & Eosin (HT110-1-32, Sigma-Aldrich, USA). […]

[2] = test system: neutrophils and total immunocytes in BALF; experiment: COPD rat model (cigarette smoke): immunocytes in BALF; format: in vivo, Sprague-Dawley rat; settings: ATC2 and Verproside 30 mg/kg
Method: 3 kinds of test samples, i.e., ATC2 (30 mg/kg), Verproside (30 mg/kg), Daxas (main ingredient: Roflumilast, 1 mg/kg) were dissolved in PBS and uses as test samples.
ATC2, Verproside, Daxas were orally administrated to the mice at the dose of 4 mg/kg, 1 hour before prior the intratracheal instillation (i.t.).
(§3) The exposure of cigarette smoke was performed by using a cigarette smoke generator (CH Technology Corp. USA). In a detail, 1 hour after the orally administration of test samples using by Head/nose-only exposure unit (TSE System, German) according to nose-only method, the cigarette smoke was exposed by inhalation for 3 days every hour. 8 puffs (volume 35 ml, duration 2 sec, interval 1 time/min) per one piece of standard cigarette was performed in the experiment. The tested groups were divided into five groups, i.e., (i) normal group with no treatment (normal control, NC), (ii) control group exposed with cigarette smoke (COPD), (iii) test sample group treated with Daxas (1 mg/kg, p.o) 1 hr prior to cigarette smoke exposure (DA), (iv) test sample group treated with ATC2 (30 mg/ml, p.o) 1 hr prior to cigarette smoke exposure (YPL), and (v) test sample group treated with Verproside (30 mg/ml, p.o) 1 hr prior to cigarette smoke exposure (Ver). After the end of experiment, the blood, BALF, and pneumonocyte of each rat were isolated and collected to test.
After finishing the experiment, rats were anesthetized with Zoletil50 (3VX9, Virbac, France, p.o) and the blood was delivered through caudal veins. In order to isolate BALF from lung, the bronchus of right lung was ligated with suture and then performed to tracheotomy. IV-use catheter (16 GA, 3S-Cath, Dukwoo, Korea) was put into the bronchus, and both of bronchus and catheter (16 GA, 3S-Cath, Dukwoo, Korea) were fixed with suture. […] The light lung ligated with suture was isolated, fixed with 10% neutral formalin solution, and the remaining lung tissue was reserved in refrigerator at −70° C. […]

Mucin 5A/C = experiment: Acrolein-induced Mucin 5A/C expression in A549 cells (RT-PCR); format: cell-based, human; settings: pre-treated 1 hour, then 30 nM acrolein, dose dependent
Method: The diluted A549 cell line (ATCC, CCL-185) with DMEM medium supplemented with 5% phenol red and FBS (Fetal Bovine Serum) was seeded in 6 well plates (4×10^5 cells/well) to adhere thereto for a night, and 20 and 40 microgram/ml of ATC2 extract were treated with A549 cell line for 1 hours. 30 nM acrolein was treated therewith to induce Mucin 5A/C expression. The medium was removed the cell, washed with PBS solution and homogenized with Trizol (Invitrogen, CA, USA) for the isolation of ribonucleic acids from the cells for 5 mins. the cells were collected, transferred to centrifugal separator, completely mixed with chloroform for 15 seconds, left alone for 3 mins and centrifuged for 15 mins at the speed of 14,000 rpm. The supernatant containing ribonucleic acid was transferred to new tube and mixed with isopropylalcohol for 10 mins. The solution was centrifuged to discard the supernatant and 75% ethanol was added to the precipitate. The precipitate was centrifuged for 5 mins at the speed of 10,000 rpm and the supernatant was discarded. The precipitated ribonucleic acid was dried at room temperature for 20 mins. […] After the quantification of ribonucleic acid, the complementary DNA was synthesized using by 1 microgram of RNA and RT-kit (Omniscript RT kit, Qiagen, USA) and the synthetic cDNA was used as a template. […]

[3] = target: ADBR2 (beta-2 adrenergic receptor) GPCR (Homo sapiens, UniProt P07550); experiment: ADBR2 GPCR-targeting cell-based assay (spot formation); settings: 20 micromole; U2OS cells stably expressing ADBR2 GPCR
[4] = test system: KC/CXCL-1 (Chemokines Gro-α); experiment: COPD mouse model (LPS+CS): KC/CXCL-1 in BALF by ELISA; format: in vivo, BALB/c mice; settings: 15 mg/kg, p.o.
Method: (§1) 8 weeks aged BALB/c male mice was anaesthetized with 7% chloral hydrate and 100 μl of LPS+CS mixture {LPS (100 μg/ml)+standard cigarette extract (Cigarette smoking (CS), 4 mg/ml)=1:1} was inhaled to mice (i.t.) for three weeks once a week to prepare COPD animal model. Briefly, 100 μl of LPS+CS mixture was evenly inhaled to nose and mouth of fastened mice (i.t). […] After the end of experiment, the blood, BALF, and pneumonocyte of each mice were isolated and collected to test. The level of IL-1β, IL-6, TNF-a, IL-17, MCP-1, and GRO-a (BioSource, USA) in BALF isolated from mice was determined by enzyme-linked immuno-sorbent assay. Respective antibodies against L-1β, IL-6, TNF-a, IL-17, MCP-1, and GRO-a were diluted with a coating buffer solution (291195, R&D System, USA), coated on a microwell and left alone for overnight at 4° C. Each well was washed three times with washing buffer solution and 100 μl of 10-fold diluted serum was added thereto. […] The solution was left alone for 30 mins in shadow and added with 50 μl of stop solution (DY994, R&D system, USA) to determine the absorbance using by ELISA leader at 450 nm (340PC384, Molecular Devices, USA).

IL-1β, IL-6, and TNF-α = experiment: COPD rat model (cigarette smoke): cytokine release in BALF by ELISA; format: in vivo, Sprague-Dawley rat; settings: ATC2 and Verproside 30 mg/kg, Daxas 1 mg/kg, p.o.
Method: as §3
The level of IL-1β, IL-6, and TNF-a (R&D System, USA) in BALF isolated from the rat was determined by enzyme-linked immuno-sorbent assay (ELISA). The analysis of each cytokine was performed according to the manufacturer's manual, and the absorbance was determined at 450 nm by ELISA leader (340PC384, Molecular Devices, USA).

MMP-9 and NF-κB = experiment: COPD rat model: expression of proinflammatory proteins in lung tissue (Western blotting); format: in vivo, Sprague-Dawley rat; settings: ATC2 and Verproside 30 mg/kg, Daxas 1 mg/kg, p.o.
Method: as §2
The protein obtained from homogenization was performed to electrophoresis at the dose of 30 μg/lane and transferred using by polyvinylidene difluoride (PVDF) membrane (IPVH00010, Millipore, USA).

TNF-α = experiment: COPD mouse model (LPS+CS): TNF-α in BALF by ELISA; format: in vivo, BALB/c mice; settings: 15 mg/kg, p.o.
Method: as §1

ADBR2 (beta-2 adrenergic receptor) GPCR, sequence (P07550 whole entry): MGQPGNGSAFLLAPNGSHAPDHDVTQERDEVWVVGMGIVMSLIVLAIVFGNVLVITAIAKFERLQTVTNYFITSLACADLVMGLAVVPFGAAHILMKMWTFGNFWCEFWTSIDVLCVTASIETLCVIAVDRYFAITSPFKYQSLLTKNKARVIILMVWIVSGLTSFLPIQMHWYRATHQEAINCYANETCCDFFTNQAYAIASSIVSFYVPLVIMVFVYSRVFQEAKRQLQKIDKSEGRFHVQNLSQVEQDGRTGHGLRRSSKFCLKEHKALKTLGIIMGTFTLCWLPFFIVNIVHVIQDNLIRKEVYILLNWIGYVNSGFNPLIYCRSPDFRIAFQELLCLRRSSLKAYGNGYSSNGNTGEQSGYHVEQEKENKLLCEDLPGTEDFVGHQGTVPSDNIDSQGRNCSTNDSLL

In the case of O=C(O[C@H]1[C@@H]2C=CO[C@@H](O[C@@H]3O[C@H](CO)[C@@H](O)[C@H](O)[C@H]3O)[C@@H]2[C@@]2(CO)O[C@@H]12)c1ccc(O)c(O)c1 [verproside, 6-O-(3,4-dihydroxybenzoyl) catalpol], the “reduction of chemokines MIP-2/CXCL-2 in BALF compared with control group” value (MIP-2/CXCL-2) is reported as “more than 63.0%”, the “inhibitory effect on inflammation in lung tissue relative to Daxas group” value ([1]; ATC2 and Verproside 30 mg/kg versus Daxas 1 mg/kg) is reported as “more potent” and the “inflammation (infiltration of inflammatory cells) in lung tissue compared with COPD induced group” value ([1]; ATC2 and Verproside 30 mg/kg, Daxas 1 mg/kg) is reported as “significant decreased”. The “ratio of the number of neutrophils to that of immunocytes (counting 300 immunocytes) compared with COPD induced group” value ([2]; Daxas 1 mg/kg, p.o.) was “remarkably reduced ratio”, the “level of neutrophils in BALF compared with COPD induced group” value ([2]; Daxas 1 mg/kg, p.o. 1 hr prior to cigarette smoke exposure) was “remarkably reduced level” and the “level of total immunocytes in BALF compared with COPD induced group” value ([2]; p.o. 1 hr prior to cigarette smoke exposure) was “remarkably reduced level”. For the same compound, the “expression of Mucin 5A/C (mRNA, RT-PCR)” value (Mucin 5A/C) was “inhibited”, the spot formation [3] was “did not show spot formation” and the “reduction of chemokine KC/CXCL-1 in BALF compared with control group” value [4] was “more than 57.4%”. For the same compound, the “level of cytokines (IL-1β, IL-6, TNF-α) in BALF compared with COPD induced group” value (IL-1β, IL-6, and TNF-α) was “significantly reduced level”, the “expression of proinflammatory protein (MMP-9, NF-κB) in lung tissue compared with COPD induced group” value (MMP-9 and NF-κB) was “significant decreased” and the “reduction of TNF-α in BALF compared with control group” value (TNF-α) was “more than 42.2%”.
